# Measured values as given in US20240197742A1, “Therapeutic Combinations of a CD19 Inhibitor and a BTK Inhibitor” (Acerta Pharma B.V., priority 2015, published 2024).
# “Also recorded” adds a separate entry of the source.
# Tests used:
# [1] = system: CXCL12 and CCL2; assay: Plasma chemokines in CLL patients; assay type: in vivo, human; details: plasma of treated CLL patients
# [2] = system: CD8+ T cells; assay: Cytotoxic T cell (CTL) assay; assay type: cell-based; details: 500 nM, relative to vehicle
# Procedure: Without being bound by any theory, CD8^+ T cells have two primary effector functions: (1) produce large amounts of IFN-γ (which activates macrophages), and (2) cytolytic activity. […] The targets were B lymphoblasts from lipopolysaccharide (LPS) treated cultures. The assay was performed by incubating different ratios of effectors:targets for 4 hours.
# [3] = system: NSCLC (KrasLA2); assay: KrasLA2 non-small cell lung cancer model; assay type: in vivo, mice; details: dosing of 15 mg/kg
# Description: The model is designed to have sporadic expression in single cells of G12D mutant Kras off its own promoter triggered by spontaneous intrachromosomal recombination. Johnson, et al. Nature 2001, 410, 1111-16. While the mutant Kras protein is expressed in a few cells in all tissues, tumor development is seen only in the lung at high penetrance.
# [4] = system: Th17 cells; assay: Th17 development from enriched CD4+ T cells; assay type: cell-based; details: anti-TCRβ plus anti-CD28, skewing cytokines, 4 days
# Procedure: Enriched CD4^+ T cells are plated on 24-well culture dishes that have been precoated 2 hr with 250 μL anti-TCRβ (0.5 μg/mL) plus anti-CD28 (5 μg/mL) at 37° C. in PBS. The cells are then supplemented with media containing BTK inhibitors along with the skewing cytokines as indicated in the following. The Th17 and Treg cultures are grown for 4 days before analysis. The cells are maintained for an additional 3 days with skewing cytokines (Th17; 20 ng/mL IL-6, 0.5 ng/mL TGF-β, 5 μg/mL IL-4, 5 μg/mL IFN-γ and Treg; 0.5 ng/mL TGF-β, 5 μg/mL IL-4, 5 μg/mL IFN-γ) and are supplemented with IL2 as a growth factor.
# [5] = target: T1, BTK (Mus musculus, UniProt P35991); assay: Molecular probe assay of irreversible BTK occupancy in MDSCs; assay type: in vivo; details: tumor bearing PDA mice, 15 mg/kg BID; Day 8 at 4 hours post dose (N=5)
# T1 construct: MDSCs were purified from tumor bearing PDA mice; from tissue; host or cells: granulocytic and monocytic MDSCs from tumor-bearing PDA mice dosed in vivo
# T1 sequence (P35991 whole entry): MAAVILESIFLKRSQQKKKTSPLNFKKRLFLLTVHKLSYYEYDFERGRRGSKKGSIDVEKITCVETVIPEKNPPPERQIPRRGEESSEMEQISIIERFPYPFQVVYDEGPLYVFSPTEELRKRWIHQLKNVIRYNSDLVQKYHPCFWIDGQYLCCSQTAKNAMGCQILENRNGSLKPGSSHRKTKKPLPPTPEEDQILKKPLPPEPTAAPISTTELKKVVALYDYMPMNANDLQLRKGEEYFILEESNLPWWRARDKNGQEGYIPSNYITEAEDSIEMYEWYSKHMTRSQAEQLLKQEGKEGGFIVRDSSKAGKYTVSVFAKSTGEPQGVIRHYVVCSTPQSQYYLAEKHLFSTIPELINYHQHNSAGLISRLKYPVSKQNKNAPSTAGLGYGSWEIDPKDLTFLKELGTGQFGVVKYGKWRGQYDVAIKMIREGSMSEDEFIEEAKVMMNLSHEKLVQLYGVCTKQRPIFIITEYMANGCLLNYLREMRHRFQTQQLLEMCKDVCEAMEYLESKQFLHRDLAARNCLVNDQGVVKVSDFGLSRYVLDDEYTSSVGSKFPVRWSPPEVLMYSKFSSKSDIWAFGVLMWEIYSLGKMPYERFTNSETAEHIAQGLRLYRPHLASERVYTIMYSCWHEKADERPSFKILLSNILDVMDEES
# [6] = system: human platelets; assay: Laser injury thrombus formation in VWF HA1 mice infused with human platelets; details: 0.1 μM, 0.5 μM, or 1 μM
# Procedure: Injury to the vessel wall of arterioles ([…] diameter) was performed using a pulsed nitrogen dye laser (440 nm, Photonic Instruments) applied through a 20× water-immersion Olympus objective (LUMPlanF1, 0.5 numerical aperture (NA)) of a Zeiss Axiotech vario microscope. […] The extent of thrombus formation was assessed for 2 minutes after injury and the area (μm^2) of coverage determined (Image IQ, Andor Technology).
# The BTK inhibitor-treated human platelets were fluorescently labeled and infused continuously through a catheter inserted into the femoral artery.
# [7] = In vitro metabolism in hepatocytes; assay type: in vitro ADME, and human; details: ^4C-labeled Formula (2); mouse, rat, dog, rabbit, monkey, human hepatocytes
# Description: (§1) No unique human metabolite was identified. Preliminary evaluations of metabolism in the plasma, bile, and urine of rats, dogs, and monkeys indicated metabolic processes of oxidation, glutathione binding, and hydrolysis.
# [8] = system: GPVI; assay: GPVI platelet aggregation (convulxin); assay type: cell-based, human
# Procedure: GPVI platelet aggregation was measured for Formula (2) and Formula (10) (ibrutinib). Blood was obtained from untreated humans, and platelets were purified from […] by centrifugation. Cells were resuspended to a final concentration of 350,000/μL in buffer containing 145 mmol/L NaCl, 10 mmol/L HEPES, 0.5 mmol/L Na2HPO4, 5 mmol/L KCl, 2 mmol/L MgCl2, 1 mmol/L CaCl2, and 0.1% glucose, at pH 7.4. Stock solutions of Convulxin (CVX) GPVI were prepared on the day of experimentation and added to platelet suspensions 5 minutes (37° C., 1200 rpm) before the induction of aggregation. Aggregation was assessed with a Chronolog Lumi-Aggregometer (model 540 VS; Chronolog, Havertown, PA) and permitted to proceed for 6 minutes after the addition of agonist. The results are reported as maximum percent change in light transmittance from baseline with platelet buffer used as a reference.
# In FIG. 72, the results of CVX-induced (250 ng/mL) human platelet aggregation results before and 15 minutes after administration of the BTK inhibitors to 6 healthy individuals are shown.
# [9] = system: BCR activation markers CD69 and CD86; assay: In vivo potency: expression of BCR activation markers after IgM stimulation; details: mice gavaged, 3 hours post-dose, BCR stimulated with IgM; versus Formula (10)
# Procedure: Mice were gavaged at increasing drug concentration and sacrificed at one time point (3 hours post-dose). BCR is stimulated with IgM and the expression of activation markers CD69 and CD86 are monitored by flow cytometry to determine EC50 values.
# CD86 and CD69 are cell surface proteins that are BCR activation markers. […] BCR was stimulated with IgM and the expression of activation marker CD69 and CD86 are monitored by flow cytometry to determine EC50 values.
# [10] = system: CYP enzymes; assay: Nonclinical CYP interaction studies; assay type: in vitro ADME
# Description: as §1
smiles,measurement,setting,value
"CC#CC(=O)N1CCC[C@H]1c1nc(-c2ccc(C(=O)Nc3ccccn3)cc2)c2c(N)nccn12 [Formula (2), (S)-4-(8-amino-3-(1-(but-2-ynoyl)pyrrolidin-2-yl)imidazo[1,5-α]pyrazin-1-yl)-N-(pyridin-2-yl)benzamide]",CCL2 levels,[1],significant decrease
same,CXCL12 levels,[1],significant decrease
same,CD8+ T cell function as measured by % cytotoxicity,[2]; 4 days CTL generation,no effect
same,CD8+ T cell function as measured by IFN-γ level,[2],no effect
same,immunosuppressive tumor associated MDSCs,[3],significant reduction
same,immunosuppressive tumor associated TAMs,[3],significant reduction
same,immunosuppressive tumor associated Tregs,[3],significant reduction
same,number of tumors,[3],fewer overall tumors
same,tumor volumes versus vehicle (microCT),[3],significant decrease
same,effect on Th17 cells / Th17 development,[4],no adverse effect
same,BTK occupancy in granulocytic and monocytic MDSC compartments,[5],Complete
same,effect on human platelet-mediated thrombus formation,[6],does not interfere with thrombus formation; also recorded: no significant effect
same,metabolites in hepatocytes,[7],two mono-oxidized metabolites and a glutathione conjugate
same,effect on GPVI platelet aggregation,[8]; CVX-induced human platelet aggregation,does not
same,IC50,"[8]; purified human platelets, convulxin (CVX)",1.15 µM
same,in vivo potency at inhibiting expression of activation markers CD69 and CD86,[9],more potent
same,drug-drug interaction potential through CYP enzymes,[10],very unlikely to cause clinical drug-drug interactions
